# Source: patent US9415031B2, “D-serine transporter inhibitors as pharmaceutical compositions for the treatment of visual system disorders” (Allergan, Inc., priority 2011, dated 2016)
# “Also recorded” adds a separate entry of the source.
# Columns and labels:
# astrocytes = assay: [3H]L-serine transport into astrocytes; type: cell-based, rat; details: FIG. 6B
# Protocol: (§1) Cell-based assays: the transport of [^3H]L- or D-serine was measured in primary cultures of rat hippocampal astrocytes or in human embryonic kidney (HEK) cells expressing ASCT transporter sub-types. For the astrocyte assays, cells were plated on either 24- or 96-well plates at a density of 50,000 cells per well. For the HEK assays, cells were plated on coated 96-well plates at a density of 80,000 cells/well. Assays were conducted in duplicate at room temperature in assay buffer consisting of: NaCl: 150 mM, KCl: 2 mM; MgCl2: 1 mM; CaCl2: 1 mM; HEPES: Tris buffer: 10 mM, pH7.4. To assess the sodium-dependence of transport, NaCl was replaced in the assay buffer by equimolar choline chloride. Following aspiration of growth medium and 2 washes with assay buffer, cells were incubated with [^3H]L- or D-serine at a final concentration of 1 μM for 5 min (astrocytes) or 1 min (HEK cells), after which the incubation medium was aspirated and the cells washed twice with ice-cold assay buffer. Cells containing radiolabel were solubilized in 100 μl of 1% Triton-X100 and an aliquot counted in a beta counter. IC50 values were determined over a range of at least 6 concentrations and derived from curve-fitting algorithms available in Graph Pad Prism 4.
# ASCT1 [1] = target: T1, ASCT1 (Homo sapiens, UniProt P43007); assay: transport into HEK cells expressing ASCT1; type: cell-based; design: expressed in transfected cells; host or cells: HEK (human embryonic kidney) cells; details: for selectivity towards ASCT1: inhibition of [3H]L-serine transport, HEK cells expressing ASCT1 vs ASCT2
# T1 sequence (P43007 1-532): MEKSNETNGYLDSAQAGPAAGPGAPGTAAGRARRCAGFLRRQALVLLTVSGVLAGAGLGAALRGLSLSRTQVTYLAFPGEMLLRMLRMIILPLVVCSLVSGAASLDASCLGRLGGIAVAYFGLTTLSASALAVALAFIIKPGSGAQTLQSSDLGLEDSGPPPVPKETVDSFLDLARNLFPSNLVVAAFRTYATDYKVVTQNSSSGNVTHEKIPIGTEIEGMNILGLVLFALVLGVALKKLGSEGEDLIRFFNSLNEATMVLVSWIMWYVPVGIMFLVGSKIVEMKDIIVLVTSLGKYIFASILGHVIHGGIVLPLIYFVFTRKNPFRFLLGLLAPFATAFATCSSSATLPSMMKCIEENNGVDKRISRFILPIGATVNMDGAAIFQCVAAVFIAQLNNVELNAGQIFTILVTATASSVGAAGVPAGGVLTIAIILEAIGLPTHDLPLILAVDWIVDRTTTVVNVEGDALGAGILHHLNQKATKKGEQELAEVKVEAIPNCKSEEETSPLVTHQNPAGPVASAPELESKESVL
# Protocol: as §1
# human ASCT2 = target: T2, human ASCT2 (Homo sapiens, UniProt Q15758); assay: transport into HEK cells expressing ASCT2; type: cell-based
# T2 construct: expressed in transfected cells; host or cells: HEK (human embryonic kidney) cells
# T2 sequence (Q15758 1-541): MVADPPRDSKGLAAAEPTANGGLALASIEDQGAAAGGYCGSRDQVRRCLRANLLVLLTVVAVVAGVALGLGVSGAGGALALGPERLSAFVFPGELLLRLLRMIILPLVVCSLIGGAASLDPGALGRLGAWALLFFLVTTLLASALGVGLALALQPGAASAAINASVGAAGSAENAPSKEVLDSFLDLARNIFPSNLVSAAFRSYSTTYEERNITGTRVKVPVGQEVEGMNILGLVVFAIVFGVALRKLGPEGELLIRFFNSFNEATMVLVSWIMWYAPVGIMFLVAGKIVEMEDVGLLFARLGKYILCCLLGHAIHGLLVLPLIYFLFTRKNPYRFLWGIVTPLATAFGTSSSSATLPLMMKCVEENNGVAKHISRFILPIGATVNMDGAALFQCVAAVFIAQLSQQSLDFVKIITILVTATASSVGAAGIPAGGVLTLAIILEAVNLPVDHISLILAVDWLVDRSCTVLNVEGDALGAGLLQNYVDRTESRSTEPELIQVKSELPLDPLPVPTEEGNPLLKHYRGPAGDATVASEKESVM
# Protocol: as §1
# normal rats = assay: sweep VEP visual acuity in normal rats; type: in vivo, rat; details: 0.03-1.6 cpd, vs saline
# From the text: Sweep visually evoked potential (sweep VEP, sVEP), which was first introduced by Regan in 1973, has become an important technique to measure visual function. It is an objective method that can be used to assess visual acuity (VA) and contrast sensitivity (CS) in infants, young children and people with special needs. It was adapted to measure VA and CS in animals.
# (§2) The recording electrodes were permanently implanted into the right visual cortex of Long Evans rats at lambda and 4.5 mm lateral to the midline, to a depth of 800 microns (layer III/iV). A reference electrode was placed epidurally on the midline 1.2 mm anterior to bregma. All recordings were conducted in awake rats starting at least two weeks after recovery from surgery. During recording the rats were alert and restrained in a home-made restrainer. They were habituated 2-3 times pre-surgery and at least three more times during seven days post-surgery. PowerDiva software from Anthony Norcia (Smith Kettlewell Institute of Visual Sciences) was used for data acquisition and analysis. Similar recording was performed in rabbits (FIG. 11) except the screw electrodes were place on top of the skull.
# (§3) Stimuli were presented on a CRT computer monitor and consist of full-field sine-wave gratings at 80% contrast, reversing at 6.25 Hz. VEPs were elicited by horizontally oriented gratings. The display was positioned 24 cm in front of the rat and centered at the vertical meridian. Mean luminance was held constant at 20 cd. For sVEP in normal rats (slides 76-79), one stimulus presentation (one trial) consists of a spatial frequency sweep decreasing from 1.6 to 0.03 cycles/degree in 15 linear steps. A total of 20 trials were collected. Visual acuity (VA) thresholds were estimated using PowerDiva software. For fixed frequency stimulus in optic nerve crushed (ONC) rats (slides 80-83), the spatial frequency was fixed at 0.2 or 0.5 cycles/degree. Each trial lasts for 15 s. A total of 5 trials were collected and the signal powers were calculated.
# [2] = test system: rats after blue-light treatment; assay: contrast sensitivity (sweep VEP) in blue-light treated rats; type: in vivo, rat
# Protocol: as §2
# One stimulus presentation (one trial) consists of a contrast sweep increasing from 2.5 to 70% in 15 log steps. A total of 20 to 30 trials were collected. Contrast thresholds (CT) were estimated using PowerDiva software. Contrast sensitivity (CS) is calculated as 1/CT.
# Blue-light treatment damages photoreceptors in the retina, and has been proposed as a model of age related macular degeneration (ARMD; Wielgus et al., 2010).
# normal rabbits = assay: sweep VEP in normal rabbits; type: in vivo, rabbit; details: 30 mg/kg, 0.03-1.6 cpd, vs saline
# Protocol: as §2
# as §3, with “Visual acuity (VA) thresholds were estimated using PowerDiva software. For fixed frequency stimulus in optic nerve crushed (ONC) rats (slides 80-83), the spatial frequency was fixed at 0.2 or 0.5 cycles/degree. Each trial lasts for 15 s.” left out
# [3] = test system: NMDA receptor-mediated excitatory postsynaptic currents (EPSCNMDA); assay: electrophysiological recording of NMDA receptor-mediated EPSCs from rat hippocampal slices; type: cell-based
# Protocol: […] thick hippocampal slices were prepared from […] rats using Leica VT1000S-microtome. Slices were perfused with ACSF containing: 121 mM NaCl, 2.5 mM KCl, 2.0 mM Mg2SO4, 2.0 CaCl2, 1 mM NaH2PO4, 26.2 NaHCO3, and 11 mM glucose, which was equilibrated with 5% CO2/95% O2. Experiments were performed in a recording chamber on the stage of an Olympus BX-61wi microscope with infrared DIC optics for visualizing whole-cell patch-clamp recordings. EPSPs were recorded from CA1 pyramidal neurons by stimulating the Schaffer collateral-commissural pathway using a bipolar tungsten electrode. The recording pipettes were filled with regular ICM containing: 120 mM Cs-gluconate, 5 mM NaCl, 10 mM KCl, 0.1 mM CaCl2, 1 mM EGTA, 2 mM MgCl2, 10 mM HEPES, 2 mM Na-ATP, 2 mM Na2-phosphocreatine, and 0.25 mM Na-GTP, pH 7.3 (290 mOsm).
# To measure NMDA-mediated EPSCs, extracellular Mg2SO4 was lowered to 0.2 mM and 2 μM NBQX and 100 μM picrotoxin were added in the ACSF. 1 μM 7-CKY (7-chlorokynurenic acid) was added to improve the sensitivity of […] to D-serine.
# [4] = test system: long-term potentiation (LTP) in the primary visual cortex; assay: long-term potentiation (LTP) in primary visual cortex slices; type: cell-based; details: rat visual cortex slice
# Protocol: Long Term Potentiation (LTP) in primary visual cortex has been used as a cellular model for visual cortex plasticity and has functional consequences on visual evoked responses. NMDA receptors play a critical role in visual cortex LTP induction.
# Following decapitation of the rat, the brain was rapidly removed and immersed in ice-cold artificial cerebrospinal fluid (ACSF) containing 124 mM NaCl, 3 mM KCl, 1.25 mM KH2PO4, 3.4 mM CaCl2, 2.5 mM MgSO4, 26 mM NaHCO3, and 10 mM D-glucose. A block of visual cortex was created by removing the frontal ⅔ portion of the brain and the cerebellum. Coronal visual cortex slices of 375 μm were prepared from adult Sprague Dawley (SD) rats using a vibratome (VT 1000 S; Leica). The slices were maintained in an interface recording chamber perfused with preheated ACSF. Slices were continuously perfused with this solution at a rate of 1.00-1.50 ml/min while the surface of the slices was exposed to warm, humidified 95% O2/5% CO2 and maintained at 31±1° C. Visual cortex slices were allowed to recover for 1 hr before recording began. […] This was repeated 2 additional times with a 1 minute intertrain interval, and the level of LTP was recorded for at least 30 min. Changes in amplitude of the synaptic response were used to measure the extent of LTP because it was determined to be the more consistent parameter than the slope of the response. […]
# ONC rat = assay: fixed-frequency VEP in optic nerve crush (ONC) rats; type: in vivo; details: 30 mg/kg, spatial frequency fixed at 0.2 cpd, vs saline
# Protocol: as §2
# as §3, with “Visual acuity (VA) thresholds were estimated using PowerDiva software. For fixed frequency stimulus in optic nerve crushed (ONC) rats (slides 80-83), the spatial frequency was fixed at 0.2 or 0.5 cycles/degree. Each trial lasts for 15 s.” left out
# ASCT2 = details: literature range; cited from earlier work
# [5] = test system: rat hippocampal astrocytes; assay: [3H]D-serine transport into primary cultures of rat hippocampal astrocytes; type: cell-based; details: two-component inhibition curves, FIG. 4
# Protocol: as §1
# ASCT1 [6] = target: T1, ASCT1; details: one literature report; cited from earlier work
compound,measurement,setting,value
N[C@H](CO)C(=O)O [D-serine],inhibition of [3H]L-serine transport,astrocytes,completely inhibited
same,inhibition of [3H]L-serine transport,"ASCT1 [1]; ASCT1-expressing HEK cells, FIG. 6B",completely inhibited
same,transport of [3H]D-serine into ASCT1-expressing HEK cells,"ASCT1 [1]; with and without extracellular sodium, FIG. 6A",transported into ASCT1-expressing HEK cells in a sodium-dependent manner
same,inhibition of [3H]L-serine transport,"human ASCT2; ASCT2-expressing HEK cells, FIG. 6B",completely inhibited
"N[C@H](C(=O)O)c1ccc(F)cc1 [L-4FPG, L-4-fluorophenylglycine]",visual function (visual acuity) assessed by sweep VEP,"normal rats; 10 mg/kg, 40 min after injection, 10 mg/kg",enhance visual function
same,visual function (visual acuity) assessed by sweep VEP,"normal rats; 10 mg/kg, 40 min after injection, listed as L-FPG, 10 mg/kg",enhances visual function
same,contrast sensitivity,"[2]; rats fifty-three weeks after blue-light treatment, 10 mg/kg, 0.575 cpd, vs saline",improved the contrast sensitivity
"N[C@H](C(=O)O)c1ccc(O)cc1 [L-4OHPG, L-4-hydroxyphenylglycine]",visual function assessed by sweep VEP,normal rabbits,enhances visual function; also recorded: enhanced sweep VEP
same,percentage increase in the amplitude of EPSCNMDA,"[3]; 1000 μM, in presence of 1 μM 7-CKY, representative experiment",22%
same,duration of the potentiation effect on EPSCNMDA,"[3]; 1000 μM, then control buffer",lasted for one hour
same,effect on NMDA receptor-mediated EPSCs,[3]; CA1 region of the hippocampus,dose-dependent effects; also recorded: potentiated
same,effect on LTP evoked by theta burst stimulation,[4],dose-dependently facilitates; also recorded: enhanced LTP in a concentration-dependent manner
same,effect on LTP with D-amino acid oxidase (D-AAO) in the perfusion medium,[4]; D-AAO,dependent on extracellular D-serine; also recorded: completely prevented
same,visually-evoked signals (power of signals) from the visual cortex,ONC rat,visual enhancement effect; also recorded: enhances visually-evoked signals
same,visual function (visual acuity) assessed by sweep VEP,"normal rats; 30 mg/kg, 30 min after injection, 30 mg/kg",enhance visual function
same,contrast sensitivity,"[2]; rats with damaged retinas following blue-light treatment, FIG. 12 as described in text",significant improvement in contrast sensitivity
NC(=O)CC[C@H](N)C(=O)O [L-glutamine],reported affinity for ASCT2,ASCT2,23 to 70 µM
same,proportion of D-serine transport represented by the component for which the compound showed higher affinity,[5],approximately 40%
same,selectivity towards ASCT2,"human ASCT2; inhibition of [3H]L-serine transport, HEK cells expressing ASCT1 vs ASCT2",selectivity towards ASCT2; also recorded: selective for ASCT2
"O=C(O)[C@@H]1C[C@@H](O)CN1 [L-t-4OHPro, L-trans-4-hydroxyproline]",proportion of D-serine transport represented by the component for which the compound showed higher affinity,[5],approximately 60%
same,reported affinity for ASCT1,ASCT1 [6],high affinity
same,selectivity towards ASCT1,ASCT1 [1],selectivity towards ASCT1
same,selectivity towards ASCT1,ASCT1 [1]; listed as L-trans-4OHPro,selective for ASCT1
